For assay [1], the system named is T cell clone BDC-10.1. Briefly: IFNγ production by T cell clone in antigen assay (ELISA). As to conditions: peptide or preparation as antigen. It counts as cell-based, NOD mouse. An excerpt:
(§1) The T cell clones are maintained in culture by periodic re-stimulation with irradiated NOD splenocytes and islet cells or β-membrane. To assay for antigen, resting responder T cells (i.e., for example, the cells at the end of the two-week restimulation period) are co-cultured for 24 hr with elicited peritoneal macrophages (PEC) as APC and either a test sample or control antigen. Control antigen will be in the form of islet cells or the whole-cell membrane fraction (i.e., for example, a β-membrane fraction). As described above, unlysed β-membrane is stored in aliquots at −80° C. for this purpose. Negative controls include responder cells alone and responders plus APC.
(§2) At the end of the culture period, supernatants are collected from the cultures and IFNγ production is measured by ELISA. Wells positive for IFNγ are indicative of T cells responding to antigen; the amount of cytokine produced is calculated from a standard curve and is directly proportional to the amount of antigen present.
(§3) Antigenicity of islet cells, cellular and biochemical fractions, peptides, or insect cells expressing IA^g7-peptide constructs, was assessed through responses of T cell clones or hybridomas made by fusing T cell clones to the TCR^− version of T cell lymphoma, BW5147. White et al., “Two better cell lines for making hybridomas expressing specific T cell receptors” J Immunol 143:1822-1825 (1989). T cell clone cultures typically contained 2×10^4 responder T cells, 2.5×10^4 NOD peritoneal exudate cells (PEC) as APC, and antigen (SEC/IEX fractions, peptides, islet cells); all assays were performed with β-Mem as a positive control. IFNγ was measured by ELISA of culture supernatants. For cultures with T cell hybridomas, antigen/MHC activation was assessed by IL-2 production measured by a bioassay using the HT-2 T cell line. Walker et al., “Antigenspecific. I region-restricted interactions in vitro between tumor cell lines and T cell hybridomas” J Immunol 128:2164-2169 (1982). Synthetic peptides were either produced in the Molecular Resource Center at National Jewish Health or obtained from CHI Scientific, Maynard, Mass.

In assay [2] the test system is T cell clone BDC-2.5. The assay is described as above. It counts as cell-based, NOD mouse. As to conditions: peptide or preparation as antigen.
Excerpt: as §1, §2, §3

In another assay the test system is T cell clone BDC-5.10.3. The assay is described as above. It counts as cell-based, NOD mouse. Conditions: peptide or preparation as antigen.
Excerpt: as §1, §2, §3

Another assay relates to soluble IA^g7. Briefly: Peptide binding to IA^g7: competition with biotinylated HEL peptide. As to conditions: competition with biotinylated pHEL 11 μM, pH 5.6, overnight. Further details: species or system NOD mouse. An excerpt: FIG. 15B: A series of ChgA peptides tested for their ability to compete with a biotinylated HEL peptide for binding to soluble IA^g7. pS3-positive control peptide. IE^k moth cytochrome c-negative control peptide. N=2. Y axis: Percent of IA^g7-bound biotinylated HEL peptide as compared to IE^k. X axis: Log concentration of inhibitor peptide.
In order to confirm the unique binding register of the WE14 peptide, a series of peptides comprising N-terminal extensions and/or C-terminal deletions of WE14 were evaluated for their ability to stimulate the BDC-2.5 T cell clone (FIG. 6a) or to bind to IA^g7. See, FIG. 15A. […] See, FIG. 15B. Further, a pS3 mimotope was used as the positive control peptide and an irrelevant peptide from moth cytochrome c, pMCC, was the negative control peptide. The data were analyzed to determine the stimulatory or binding capacity of the peptides relative to WE14. See, FIG. 15C.
Soluble IA^g7 with covalently attached pHEL was treated with thrombin to cleave the linker attaching the peptide to the IA^g7 β chain. Kozono et al., “Production of soluble MHC class II proteins with covalently bound single peptides” Nature 369:151-154 (1994). Samples (0.5 μg) were incubated with a soluble biotinylated version of pHEL, Biotin-GGGMKRHGLDNYRGYSL (SEQ ID NO: 56) (11 μM), either alone or in the presence of various concentrations of potential competitors peptides, in 15 μL of pH 5.6 buffer overnight at room temperature. The sample was diluted to 100 μL of PBS in a well of a 96-well ELISA plate coated with an anti-IA^g7 monoclonal antibody, OX-6 (BD Pharmaceuticals). The captured IA^g7 was washed several times with PBS and the bound bio-pHEL detected with alkaline phosphatase coupled Extravadin (Sigma) and […].

For assay [3], the target named is WE14 peptide (…), natural cleavage product of chromogranin A (mouse). Briefly: cell-based or functional assay.
Assay [4] has as its system T cell clone BDC-2.5. As to conditions: Yoshida et al 2002; cited from earlier work.
For assay [5], the system named is T cell clone BDC-10.1. As to conditions: Yoshida et al 2002; cited from earlier work.
Another assay relates to T cell clone PD-12.4.4. Briefly: IFNγ production by insulin-reactive control T cell clone (ELISA). It counts as cell-based, NOD mouse. As to conditions: negative control clone.
Excerpt: as §1, §2
Antigenicity of islet cells, cellular and biochemical fractions, peptides, or insect cells expressing IA^g7-peptide constructs, was assessed through responses of T cell clones or hybridomas made by fusing T cell clones to the TCR^− version of T cell lymphoma, BW5147. […] IFNγ was measured by ELISA of culture supernatants. […]
A general note: In an ELISA, binding on a coated surface is turned into a signal by an enzyme label.

Assay [6] has as its system BDC-10.1 T cell hybridoma. Briefly: IL-2 production by T cell hybridoma stimulated with ICAM/B7 insect cells displaying IA^g7-peptide. It counts as cell-based, mouse. Conditions: covalent IA^g7-peptide complex on B7/ICAM insect cells; 24 hrs. As for the experimental part:
(§4) FIG. 13C: Three BDC T cell hybridomas stimulated in culture either with: i) immobilized H597 anti-TCR Cβ Mab; ii) ICAM/B7 expressing SF9 cells infected with virus encoding IA^g7 with a HEL peptide; or ii) ICAM/B7 expressing SF9 cells infected with virus encoding IA^g7 with pS3. IL-2 production was assayed after 24 hrs.
(§5) T cell hybridomas bearing TCR from either the BCD-2.5, BDC-10.1 or BDC-5.10.3 T cell clones were tested for their ability to recognize the covalent IA^g7-p53 complex using B7/ICAM-expressing insect cells as artificial APCs. See, FIG. 13C; Crawford et al., “Mimotopes for alloreactive and conventional T cells in a peptide-MHC display library” PloS Biol 2:E90 (2004); and Crawford et al., “Use of baculovirus MHC/peptide display libraries to characterize T-cell receptor ligands” Immunol Rev 210: 156-170 (2006).
as §3

The subject of the next assay is BDC-2.5 T cell hybridoma. The assay is described as above. It counts as cell-based, mouse. As to conditions: covalent IA^g7-peptide complex on B7/ICAM insect cells; 24 hrs. The method, then: as §4, §5, §3
For assay [7], the system named is BDC-5.10.3 T cell hybridoma. The description is as above. It counts as cell-based, mouse. Conditions: covalent IA^g7-peptide complex on B7/ICAM insect cells; 24 hrs. The method, then: as §4, §5, §3
Another assay concerns BDC-2.5 TCR. Briefly: Binding of fluorescent multimeric soluble BDC-2.5 TCR to IA^g7-peptide on insect cells (flow cytometry). Further details: species or system mouse. As to conditions: oligomerized. From the text:
FIG. 13B: Use of a fluorescent, oligomerized, soluble BDC-2.5 TCR to enrich from the library a virus encoding an IA^g7-mimotope (i.e., for example, pS3) that forms a strong ligand with a BDC-2.5 TCR.
The amino acids at p1, p2, p3, p5, p7 and p8 were fully randomized to all 20 amino acids. See, FIG. 13A. Insect cells were infected with the library at a multiplicity of infection of <1 such that most infected cells expressed a single member of the library. The few infected cells expressing an IA^g7-peptide combination capable of binding a fluorescent, soluble, multimeric version of BDC-2.5 TCR were isolated using flow cytometry. See, FIG. 13B, panel 1). These cells were used to create a new enriched viral stock. […]
The PCR DNA fragment encoding the library was cloned directly into baculovirus DNA already encoding the IA^g7 genes, attached via a linker to the N-terminus of the β chain. […] Insect cells infected with the library at a multiplicity of infection of <1 were analyzed by flow cytometry for cells that expressed IA^g7 (OX-6 Mab, BD-Pharmingen) and also bound a multivalent TCR reagent consisting of the soluble BDC-2.5 TCR captured by a biotinylated anti-Cα Mab, ADO-304, bound to Alexafluor-647 labeled streptavidin (Molecular Probes). […] The peptide sequence encoded in the positive clones was determined.
Background: In flow cytometry, cells or beads pass a laser one at a time.

“Also recorded” adds a separate entry of the source.

In the case of “EDKRWSRMD [ChgA aa354-362; ED9 = WD5 extended with EDKR]”, in the assay on T cell clone BDC-10.1 [1], the “Stimulation of T cell clone BDC-10.1 (IFNγ response), result in words” value was “did not stimulate”. For the same substance, the “Stimulation of T cell clone BDC-2.5 (IFNγ response), result in words” value is on record as “did not stimulate” in the assay on T cell clone BDC-2.5 [2] and “failed to stimulate” in the assay with T cell clone BDC-2.5 [2] (listed as ED9). The “Stimulation of T cell clone BDC-5.10.3 (IFNγ response), result in words” value in the assay on T cell clone BDC-5.10.3 is recorded as “did not stimulate”. In addition, the “IA^g7 binding, result in words” value in the assay on soluble IA^g7 is “did not bind”.
In assay [3], “TCR of the T cell clone BDC-2.5 (on the T cell clone or on a hybridoma bearing this TCR)” showed a percentage of maximal IFN-γ response at 100 mg/ml β-membrane (% of maximal IFN-γ response) of 15 and a potency in activating the BDC clones, relative to the pS3 mimotope (fold less potent than pS3) of 1000.
Consider “HRPIWARMD [peptide mimotope of Yoshida et al 2002]”, for which the “Mimotope activation of BDC-2.5” value in the assay with T cell clone BDC-2.5 [4] is listed as “highly stimulatory; also recorded: activate”.
“WL11: WE14 truncated by 3 C-terminal amino acids (WSRMDQLAKEL)”: the “Stimulation of T cell clone BDC-2.5 (IFNγ response), result in words” value with T cell clone BDC-2.5 [2] is “decreasing stimulatory activity”. Further, in the assay on soluble IA^g7, the “IA^g7 binding, result in words” value was “indistinguishable from the negative control peptide”.
Take “HIPIWARMD [peptide mimotope of Yoshida et al 2002]”: in the assay on T cell clone BDC-10.1 [5], the “Mimotope activation of BDC-10.1” value is “activate”.
“TCR of the T cell clone BDC-10.1 (on the T cell clone or on a hybridoma bearing this TCR)”: the potency in activating the BDC clones, relative to the pS3 mimotope (fold less potent than pS3) in assay [3] came to 1000.
As to “SHLVEALYLVCGERG [insulin peptide, reference compound]”, the “Response of insulin-reactive T cell clone PD-12.4.4 (IFNγ), result in words” value with T cell clone PD-12.4.4 is on record as “responded”.
With “RLGLWVRME [mimotope from baculovirus IA^g7-peptide library]”, the “Stimulation of T cell clone BDC-10.1 (IFNγ response), result in words” value with T cell clone BDC-10.1 [1] is listed as “strongly stimulated”; with T cell clone BDC-10.1 [1] (listed as pS3), “maximally”. Further, the entries for the “Stimulation of T cell clone BDC-2.5 (IFNγ response), result in words” value in the assay with T cell clone BDC-2.5 [2] and with T cell clone BDC-2.5 [2] (listed as pS3) were “strongly stimulated” and “maximally”, respectively. Moreover, the “Stimulation of T cell clone BDC-5.10.3 (IFNγ response), result in words” value in the assay with T cell clone BDC-5.10.3 is “strongly stimulated”; in the assay with T cell clone BDC-5.10.3 (listed as pS3), “maximally”. For the same substance, in the assay on T cell clone PD-12.4.4, the “Response of insulin-reactive T cell clone PD-12.4.4 (IFNγ), result in words” value is “not”. Besides, the “Activation of BDC-10.1 hybridoma (IL-2 production)” value in assay [6] is given as “maximally activated”. In the assay on BDC-2.5 T cell hybridoma, the “Activation of BDC-2.5 hybridoma (IL-2 production)” value is “maximally activated”. Besides, the “Activation of BDC-5.10.3 hybridoma (IL-2 production)” value in assay [7] was “maximally activated”. The “IA^g7 binding, result in words” value with soluble IA^g7 was “higher affinity”. For the same substance, the “Binding of IA^g7-mimotope to BDC-2.5 TCR” value in the assay on BDC-2.5 TCR was “strong ligand”.

The values above are taken from patent publication US20120128646A1, “METHODS AND COMPOSITIONS FOR THE TREATMENT OF AUTOIMMUNE DISEASE” (priority 2009, published 2012).
